What was measured:
Experiment in all cases: radiometric filter-binding kinase assay, Kinase HotSpot
Conditions in all cases: compound 0.5 µM; ATP 10 µM
MAPK13 (human) = MAPK13 (human) (UniProt O15264)
GRK7 (human) = GRK7 (human) (UniProt Q8WTQ7)
MINK1 (human) = MINK1 (human) (UniProt Q8N4C8)
ALK (human) = ALK (human) (UniProt Q9UM73)
RPS6KA3 KD1 KD2 (human) = RPS6KA3 KD1 KD2 (human) (UniProt P51812)
MAP2K1 (human) = MAP2K1 (human) (UniProt Q02750)
NEK1 (human) = NEK1 (human) (UniProt Q96PY6)
MARK1 (human) = MARK1 (human) (UniProt Q9P0L2)
ERBB4 (human) = ERBB4 (human) (UniProt Q15303)
HIPK4 (human) = HIPK4 (human) (UniProt Q8NE63)
MAP3K11 (human) = MAP3K11 (human) (UniProt Q16584)
ACVR1 (human) = ACVR1 (human) (UniProt Q04771)
ACVR1B (human) = ACVR1B (human) (UniProt P36896)
TTK (human) = TTK (human) (UniProt P33981)
PKN2 (human) = PKN2 (human) (UniProt Q16513)
ROS1 (human) = ROS1 (human) (UniProt P08922)
PRKCE (human) = PRKCE (human) (UniProt Q02156)
CLK3 (human) = CLK3 (human) (UniProt P49761)
[1] = biological target: TYK2 JH1 catalytic (human) (UniProt P29597)
SIK2 (human) = SIK2 (human) (UniProt Q9H0K1)
NTRK3 (human) = NTRK3 (human) (UniProt Q16288)
PDGFRB (human) = PDGFRB (human) (UniProt P09619)
PDGFRA (human) = PDGFRA (human) (UniProt P16234)
FER (human) = FER (human) (UniProt P16591)
MAP3K3 (human) = MAP3K3 (human) (UniProt Q99759)
TGFBR2 (human) = TGFBR2 (human) (UniProt P37173)
CLK2 (human) = CLK2 (human) (UniProt P49760)
CDK3 CCNE1 (human) = CDK3 CCNE1 (human) (UniProt Q00526+P24864)
MAP3K8 (human) = MAP3K8 (human) (UniProt P41279)
MAP4K2 (human) = MAP4K2 (human) (UniProt Q12851)
[2] = biological target: JAK1 JH1 catalytic (human) (UniProt P23458)
NLK (human) = NLK (human) (UniProt Q9UBE8)
KIT (human) = KIT (human) (UniProt P10721)
CHUK (human) = CHUK (human) (UniProt O15111)
ZAP70 (human) = ZAP70 (human) (UniProt P43403)
CSNK1G2 (human) = CSNK1G2 (human) (UniProt P78368)
CLK1 (human) = CLK1 (human) (UniProt P49759)
RET (human) = RET (human) (UniProt P07949)
PAK3 (human) = PAK3 (human) (UniProt O75914)
DYRK3 (human) = DYRK3 (human) (UniProt O43781)
SLK (human) = SLK (human) (UniProt Q9H2G2)
EPHB3 (human) = EPHB3 (human) (UniProt P54753)

CDK3 CCNE1 (human), sequence (P24864 whole entry, looked up): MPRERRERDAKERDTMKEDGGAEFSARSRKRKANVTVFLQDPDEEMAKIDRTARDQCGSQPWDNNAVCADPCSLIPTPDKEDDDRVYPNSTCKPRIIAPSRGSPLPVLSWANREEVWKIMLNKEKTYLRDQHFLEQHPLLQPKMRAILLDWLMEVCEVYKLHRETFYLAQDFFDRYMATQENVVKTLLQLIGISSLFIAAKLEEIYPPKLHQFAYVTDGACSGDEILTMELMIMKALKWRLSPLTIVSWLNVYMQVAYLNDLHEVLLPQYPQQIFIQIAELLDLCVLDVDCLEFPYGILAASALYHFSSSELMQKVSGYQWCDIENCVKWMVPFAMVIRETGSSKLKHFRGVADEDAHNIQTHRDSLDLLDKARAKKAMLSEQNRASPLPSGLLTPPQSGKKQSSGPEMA
CDK3 CCNE1 (human), sequence (Q00526 whole entry, looked up): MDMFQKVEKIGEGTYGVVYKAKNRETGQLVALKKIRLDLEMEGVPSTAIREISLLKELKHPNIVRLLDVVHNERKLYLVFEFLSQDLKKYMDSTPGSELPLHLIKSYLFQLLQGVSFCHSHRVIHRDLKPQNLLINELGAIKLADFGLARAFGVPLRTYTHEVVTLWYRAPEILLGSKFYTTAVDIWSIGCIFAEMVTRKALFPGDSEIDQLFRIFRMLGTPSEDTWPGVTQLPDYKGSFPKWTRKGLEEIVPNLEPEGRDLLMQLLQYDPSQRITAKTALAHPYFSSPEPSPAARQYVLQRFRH
SLK (human), sequence (Q9H2G2 whole entry, looked up): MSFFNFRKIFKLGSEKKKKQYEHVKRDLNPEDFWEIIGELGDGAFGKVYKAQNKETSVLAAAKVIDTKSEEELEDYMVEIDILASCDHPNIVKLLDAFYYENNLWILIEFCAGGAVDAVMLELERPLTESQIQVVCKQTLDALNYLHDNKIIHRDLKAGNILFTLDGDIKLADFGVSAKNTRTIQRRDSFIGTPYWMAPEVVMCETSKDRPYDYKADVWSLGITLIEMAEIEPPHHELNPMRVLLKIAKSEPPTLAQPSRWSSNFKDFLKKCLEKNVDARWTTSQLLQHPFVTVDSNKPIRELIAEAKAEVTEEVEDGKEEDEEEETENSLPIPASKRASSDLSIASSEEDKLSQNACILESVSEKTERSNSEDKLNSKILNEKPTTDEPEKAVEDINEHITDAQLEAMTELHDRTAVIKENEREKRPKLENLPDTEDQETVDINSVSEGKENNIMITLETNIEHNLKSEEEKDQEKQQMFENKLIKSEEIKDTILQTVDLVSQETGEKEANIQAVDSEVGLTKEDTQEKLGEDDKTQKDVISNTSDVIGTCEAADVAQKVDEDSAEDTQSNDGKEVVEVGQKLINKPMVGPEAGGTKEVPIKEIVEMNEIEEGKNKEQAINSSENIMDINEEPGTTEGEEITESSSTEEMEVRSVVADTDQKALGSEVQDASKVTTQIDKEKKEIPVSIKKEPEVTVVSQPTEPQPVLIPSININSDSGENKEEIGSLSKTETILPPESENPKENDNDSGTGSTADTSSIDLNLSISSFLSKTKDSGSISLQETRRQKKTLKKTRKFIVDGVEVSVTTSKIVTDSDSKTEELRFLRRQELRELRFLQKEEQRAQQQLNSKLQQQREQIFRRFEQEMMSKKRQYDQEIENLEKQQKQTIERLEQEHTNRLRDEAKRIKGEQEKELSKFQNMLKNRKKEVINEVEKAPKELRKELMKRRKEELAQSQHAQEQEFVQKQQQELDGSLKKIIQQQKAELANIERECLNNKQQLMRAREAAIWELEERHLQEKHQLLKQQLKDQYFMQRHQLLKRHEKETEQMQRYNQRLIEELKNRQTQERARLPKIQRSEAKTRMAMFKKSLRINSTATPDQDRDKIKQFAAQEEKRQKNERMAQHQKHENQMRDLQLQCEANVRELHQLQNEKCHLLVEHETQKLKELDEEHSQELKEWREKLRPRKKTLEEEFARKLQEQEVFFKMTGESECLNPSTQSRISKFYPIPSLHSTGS
TYK2 JH1 catalytic (human), sequence (P29597 whole entry, looked up): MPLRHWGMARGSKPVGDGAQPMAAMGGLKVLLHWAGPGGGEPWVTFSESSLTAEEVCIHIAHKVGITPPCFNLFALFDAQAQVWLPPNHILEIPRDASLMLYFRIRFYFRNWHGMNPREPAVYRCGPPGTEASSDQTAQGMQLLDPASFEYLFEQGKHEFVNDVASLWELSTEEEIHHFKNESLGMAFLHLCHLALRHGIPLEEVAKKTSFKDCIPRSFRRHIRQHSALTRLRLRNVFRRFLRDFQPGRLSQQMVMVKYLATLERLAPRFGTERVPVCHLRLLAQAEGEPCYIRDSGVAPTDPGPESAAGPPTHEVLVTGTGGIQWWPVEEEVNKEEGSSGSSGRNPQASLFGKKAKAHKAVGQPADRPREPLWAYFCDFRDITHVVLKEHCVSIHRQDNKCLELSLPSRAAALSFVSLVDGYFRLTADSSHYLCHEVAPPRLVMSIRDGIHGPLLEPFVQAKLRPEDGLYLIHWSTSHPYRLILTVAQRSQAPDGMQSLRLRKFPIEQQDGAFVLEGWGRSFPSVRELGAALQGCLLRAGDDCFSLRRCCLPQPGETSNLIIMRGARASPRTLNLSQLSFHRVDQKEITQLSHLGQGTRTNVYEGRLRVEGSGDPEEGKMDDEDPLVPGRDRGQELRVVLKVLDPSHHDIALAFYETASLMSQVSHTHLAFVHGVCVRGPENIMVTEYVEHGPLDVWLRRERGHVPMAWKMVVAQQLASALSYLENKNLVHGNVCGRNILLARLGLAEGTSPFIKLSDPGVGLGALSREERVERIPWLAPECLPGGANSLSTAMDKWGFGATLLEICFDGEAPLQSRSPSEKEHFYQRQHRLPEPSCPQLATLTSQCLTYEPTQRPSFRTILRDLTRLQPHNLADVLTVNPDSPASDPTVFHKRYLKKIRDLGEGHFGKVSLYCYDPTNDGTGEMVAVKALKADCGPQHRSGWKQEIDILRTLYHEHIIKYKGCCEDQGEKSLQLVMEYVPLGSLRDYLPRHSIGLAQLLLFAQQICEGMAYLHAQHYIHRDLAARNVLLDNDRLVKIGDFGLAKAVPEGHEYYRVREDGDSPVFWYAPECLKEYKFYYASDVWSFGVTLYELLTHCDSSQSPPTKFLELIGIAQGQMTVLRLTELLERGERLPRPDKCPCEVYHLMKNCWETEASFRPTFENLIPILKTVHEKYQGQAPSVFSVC
PDGFRA (human), sequence (P16234 whole entry, looked up): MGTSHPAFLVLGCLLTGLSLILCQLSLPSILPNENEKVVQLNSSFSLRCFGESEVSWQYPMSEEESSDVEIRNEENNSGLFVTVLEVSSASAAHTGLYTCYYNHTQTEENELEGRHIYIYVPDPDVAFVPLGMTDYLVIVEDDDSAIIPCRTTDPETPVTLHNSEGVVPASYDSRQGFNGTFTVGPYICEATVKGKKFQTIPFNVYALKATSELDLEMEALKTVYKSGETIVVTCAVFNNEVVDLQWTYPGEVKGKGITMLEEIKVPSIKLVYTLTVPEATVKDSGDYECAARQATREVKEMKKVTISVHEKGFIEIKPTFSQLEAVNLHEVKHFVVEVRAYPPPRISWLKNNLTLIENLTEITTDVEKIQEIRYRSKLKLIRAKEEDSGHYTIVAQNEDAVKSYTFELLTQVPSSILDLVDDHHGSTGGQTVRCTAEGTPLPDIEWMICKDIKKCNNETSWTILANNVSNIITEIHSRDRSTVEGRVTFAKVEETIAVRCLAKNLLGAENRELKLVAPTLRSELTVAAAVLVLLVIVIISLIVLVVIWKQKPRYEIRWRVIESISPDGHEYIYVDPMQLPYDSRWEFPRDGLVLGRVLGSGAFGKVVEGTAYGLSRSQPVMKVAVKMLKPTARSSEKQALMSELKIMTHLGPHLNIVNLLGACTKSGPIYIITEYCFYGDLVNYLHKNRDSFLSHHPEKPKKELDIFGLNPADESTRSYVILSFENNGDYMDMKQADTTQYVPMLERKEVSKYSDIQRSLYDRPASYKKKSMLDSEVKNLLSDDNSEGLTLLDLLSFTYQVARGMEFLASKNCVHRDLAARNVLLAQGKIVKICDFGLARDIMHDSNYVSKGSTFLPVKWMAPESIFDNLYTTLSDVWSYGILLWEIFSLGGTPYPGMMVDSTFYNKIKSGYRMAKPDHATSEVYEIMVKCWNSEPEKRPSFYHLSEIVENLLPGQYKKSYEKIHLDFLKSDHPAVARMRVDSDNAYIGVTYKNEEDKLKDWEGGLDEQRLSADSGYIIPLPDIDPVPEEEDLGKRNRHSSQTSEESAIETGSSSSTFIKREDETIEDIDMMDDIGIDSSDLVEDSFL
MAP3K3 (human), sequence (Q99759 whole entry, looked up): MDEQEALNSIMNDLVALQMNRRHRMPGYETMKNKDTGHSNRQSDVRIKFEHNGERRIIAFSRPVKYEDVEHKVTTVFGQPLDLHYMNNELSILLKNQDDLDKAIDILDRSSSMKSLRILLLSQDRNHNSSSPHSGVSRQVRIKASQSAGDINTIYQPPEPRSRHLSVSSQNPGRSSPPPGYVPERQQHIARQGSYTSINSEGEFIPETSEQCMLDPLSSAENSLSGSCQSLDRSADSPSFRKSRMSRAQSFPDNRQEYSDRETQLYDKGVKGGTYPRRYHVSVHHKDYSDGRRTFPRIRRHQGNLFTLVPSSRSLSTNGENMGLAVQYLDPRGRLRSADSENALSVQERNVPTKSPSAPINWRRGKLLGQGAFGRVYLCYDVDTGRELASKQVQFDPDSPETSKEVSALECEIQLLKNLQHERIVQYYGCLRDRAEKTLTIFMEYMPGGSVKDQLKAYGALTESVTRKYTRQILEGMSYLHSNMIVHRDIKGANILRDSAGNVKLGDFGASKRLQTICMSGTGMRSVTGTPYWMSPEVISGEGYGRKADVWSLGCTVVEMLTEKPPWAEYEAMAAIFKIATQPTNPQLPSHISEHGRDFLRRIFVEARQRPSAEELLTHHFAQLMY

CCCCc1c(-c2ccc(O)cc2)[nH]c2nccnc12
residual activity (MAPK13 (human)): 101% | residual activity (GRK7 (human)): 82.4% | residual activity (MINK1 (human)): 82% | residual activity (ALK (human)): 85% | residual activity (RPS6KA3 KD1 KD2 (human)): 90.8% | residual activity (MAP2K1 (human)): 94.8% | residual activity (NEK1 (human)): 92.2% | residual activity (MARK1 (human)): 91.9% | residual activity (ERBB4 (human)): 102% | residual activity (HIPK4 (human)): 108% | residual activity (MAP3K11 (human)): 32.5% | residual activity (ACVR1 (human)): 83.8% | residual activity (ACVR1B (human)): 117% | residual activity (TTK (human)): 91.6% | residual activity (PKN2 (human)): 82.4% | residual activity (ROS1 (human)): 26.3% | residual activity (PRKCE (human)): 107% | residual activity (CLK3 (human)): 121% | residual activity [1]: 43.4% | residual activity (SIK2 (human)): 95.9% | residual activity (NTRK3 (human)): 76.1% | residual activity (PDGFRB (human)): 91.4% | residual activity (PDGFRA (human)): 95.1% | residual activity (FER (human)): 55.6% | residual activity (MAP3K3 (human)): 127% | residual activity (TGFBR2 (human)): 55% | residual activity (CLK2 (human)): 76.4% | residual activity (CDK3 CCNE1 (human)): 76.8% | residual activity (MAP3K8 (human)): 111% | residual activity (MAP4K2 (human)): 28.2% | residual activity [2]: 53.8% | residual activity (NLK (human)): 90.3% | residual activity (KIT (human)): 80.8% | residual activity (CHUK (human)): 77.6% | residual activity (ZAP70 (human)): 94.4% | residual activity (CSNK1G2 (human)): 78.5% | residual activity (CLK1 (human)): 97.9% | residual activity (RET (human)): 52.6% | residual activity (PAK3 (human)): 97.7% | residual activity (DYRK3 (human)): 90.9% | residual activity (SLK (human)): 77.3%

COc1cc2ncnc(Nc3ccc(O)c(Br)c3)c2cc1OC
residual activity (MAPK13 (human)): 102% | residual activity (GRK7 (human)): 96.4% | residual activity (MINK1 (human)): 64.4% | residual activity (ALK (human)): 12.5% | residual activity (RPS6KA3 KD1 KD2 (human)): 69.4% | residual activity (MAP2K1 (human)): 98.2% | residual activity (NEK1 (human)): 90.5% | residual activity (MARK1 (human)): 94.8% | residual activity (ERBB4 (human)): 29.1% | residual activity (HIPK4 (human)): 107% | residual activity (MAP3K11 (human)): 83.7% | residual activity (ACVR1 (human)): 128% | residual activity (ACVR1B (human)): 105% | residual activity (TTK (human)): 105% | residual activity (PKN2 (human)): 97.2% | residual activity (ROS1 (human)): 65.7% | residual activity (PRKCE (human)): 93.2% | residual activity (CLK3 (human)): 54.1% | residual activity (EPHB3 (human)): 88.1% | residual activity [1]: 96.5% | residual activity (SIK2 (human)): 92.2% | residual activity (NTRK3 (human)): 83.4% | residual activity (PDGFRB (human)): 93.7% | residual activity (PDGFRA (human)): 88.9% | residual activity (FER (human)): 85.2% | residual activity (MAP3K3 (human)): 82% | residual activity (TGFBR2 (human)): 105% | residual activity (CLK2 (human)): 96.7% | residual activity (CDK3 CCNE1 (human)): 93.5% | residual activity (MAP3K8 (human)): 97.6% | residual activity (MAP4K2 (human)): 101% | residual activity [2]: 81.5% | residual activity (NLK (human)): 76.2% | residual activity (KIT (human)): 97.3% | residual activity (CHUK (human)): 107% | residual activity (ZAP70 (human)): 99.7% | residual activity (CSNK1G2 (human)): 96.4% | residual activity (CLK1 (human)): 77.2% | residual activity (RET (human)): 21.4% | residual activity (PAK3 (human)): 94.2% | residual activity (DYRK3 (human)): 95.3% | residual activity (SLK (human)): 50.3%

N#C/C(=C1/Nc2ccccc2S1)c1ccnc(NCCc2cccnc2)n1
residual activity (MAPK13 (human)): 100% | residual activity (GRK7 (human)): 113% | residual activity (MINK1 (human)): 93.3% | residual activity (ALK (human)): 85.2% | residual activity (MAP2K1 (human)): 93.2% | residual activity (NEK1 (human)): 70% | residual activity (MARK1 (human)): 97.6% | residual activity (ERBB4 (human)): 83.1% | residual activity (HIPK4 (human)): 97.6% | residual activity (MAP3K11 (human)): 72.2% | residual activity (ACVR1 (human)): 100% | residual activity (ACVR1B (human)): 97.1% | residual activity (TTK (human)): 80.9% | residual activity (PKN2 (human)): 99.3% | residual activity (ROS1 (human)): 92.7% | residual activity (PRKCE (human)): 92.1% | residual activity (CLK3 (human)): 88.5% | residual activity (EPHB3 (human)): 91% | residual activity [1]: 83.2% | residual activity (SIK2 (human)): 96.4% | residual activity (NTRK3 (human)): 80.2% | residual activity (PDGFRB (human)): 103% | residual activity (PDGFRA (human)): 99% | residual activity (FER (human)): 91% | residual activity (MAP3K3 (human)): 94.7% | residual activity (TGFBR2 (human)): 102% | residual activity (CLK2 (human)): 48.5% | residual activity (CDK3 CCNE1 (human)): 92.3% | residual activity (MAP3K8 (human)): 96% | residual activity (MAP4K2 (human)): 76.9% | residual activity [2]: 113% | residual activity (NLK (human)): 94.9% | residual activity (KIT (human)): 93.6% | residual activity (CHUK (human)): 88.6% | residual activity (ZAP70 (human)): 94.5% | residual activity (CSNK1G2 (human)): 87% | residual activity (CLK1 (human)): 75.4% | residual activity (RET (human)): 70.1% | residual activity (PAK3 (human)): 102% | residual activity (DYRK3 (human)): 103% | residual activity (SLK (human)): 87.7%

Source: the kinase profiling compilation of Christmann-Franck et al. (2016)
